Data set [1] relates to Fasciola hepatica adults (ABZ-resistant isolate). Briefly: Adult viability test (AVT), motility inhibition. Conditions: for inhibition at 10 µM: Fasciola hepatica. In kind it is cell-based. Here is the method:
The adult viability test was based on a previous study carried out by Kirchhofer et al. with minor modifications. In brief, adult F. hepatica flukes were recovered from bile ducts of infected sheep with the resistant isolate. Flukes were quickly washed with 0.9% (w/v) NaCl and placed in six-well plates (Costar, Spain) with RPMI 1640 culture medium (Sigma-Aldrich®, Spain) supplemented with antibiotics (50 μg/mL streptomycin and 50 IU/mL penicillin; Sigma-Aldrich®, Spain) and 80 μg/mL of a hemin solution at 37 °C.
To monitor the anthelmintic effect of BZDs and the commercial drug ABZ, two flukes per well were incubated up to 72 h at a final concentration of 10 µM. DMSO at 0.5% was used as negative control. The individual movement of each fluke was examined using an inverted microscope at 24, 48, and 72 h. The activity of the compounds was estimated as motility inhibition, using a scale of fluke viability ranging from 3 (normal movements) to 0 (death, no movement observed for 2 min). All tests were repeated at least twice at different days.
Additionally, the percentage of motility inhibition for each compound was calculated from […] to 48 and 72 h after treatment using the following formula: 100 × (mean of the motility score of BZD at 24 h − mean of the motility score of BZD at 48 or 72 h)/(mean of the motility score of BZD at 24 h).
For the AVT, statistical analysis was performed using GraphPad Prism version 8.0.2. The normality of the motility inhibition scores was assessed using the Shapiro–Wilk test. Then, differences among scores at the three time points (24, 48, and 72 h) were evaluated using the Friedman test. In cases where significant differences were observed, post hoc analysis was conducted using the Nemenyi test for multiple comparisons. Comparisons with a P value < 0.05 were considered statistically significant.

In data set [2] the test system is Fasciola hepatica eggs (ABZ-resistant isolate). Put plainly: Egg hatch test (EHT), ABZ-resistant isolate. In kind it is cell-based. The text has this: F. hepatica eggs were recovered after washing the gallbladder of three naturally infected sheep belonging to a flock suspected to be resistant to ABZ. From these eggs, metacercariae were produced at the Centro de Investigaciones de Mabegondo (AGACAL, Xunta de Galicia, Spain) following a previous protocol. These metacercariae were used to infect eight sheep with a dose of 200 metacercariae. The infection was confirmed individually 3 months after the infection by coprological analysis using a sedimentation technique. At that point, sheep were randomly located in two groups of four animals: one treated with a therapeutic dose of ABZ (7.5 mg/kg) and the other one only with water, as control group. To assess the efficacy of ABZ in this isolate, all sheep were humanely euthanized by an intravenous administration of a lethal dose of sodium pentobarbital (Dolethal®, Vetoquinol, Spain) 2 weeks later for fluke recovery and counting. Afterwards, the in vivo efficacy of ABZ was calculated as the percentage of adult worm reduction compared with the untreated control. Additionally, the number of eggs per gram of feces (EPG) was estimated on the treatment day (mentioned as day 0) and 14 days later to determine drug efficacy by means of the fecal egg count reduction test (FECRT).
During the necropsy, gallbladders from sheep belonging to the untreated group were taken to collect the eggs and carry out the in vitro EHT, while flukes collected from livers were used to conduct the adult viability test (AVT).
Those BZDs with an activity higher than 80% at a concentration of 10 µM were also screened on eggs and adults from the ABZ resistant isolate.
(§1) The in vitro EHT described in the current study was based on previous studies. Briefly, 100–120 eggs were incubated in 990 µL of water and 10 μL of each working solution at 25 °C in the dark for a period of 12 h. After incubation, eggs were gently washed with tap water three times to facilitate compound removal and kept in darkness at 25 °C for 14 days. After this period, eggs were exposed to light for 2 h to stimulate the hatching of eggs. Then, hatched and unhatched eggs were evaluated and counted using an optical microscope. The term “hatched eggs” includes both hatched and embryonated eggs. Negative control eggs were incubated with 10 μL of DMSO in 990 μL of water, reaching a maximum DMSO concentration of 1% (v/v), while ABZ at 0.5 µM was used as positive control. Each compound at a specific concentration was tested in triplicate in the same EHT and repeated at least two different days.
(§2) The efficacy of each compound and drug was calculated as its ovicidal activity following the formula below: Ovicidal activity%=100×%eggs hatched in negative control-%egg hatched after drug incubation/%egg hatched in control.

Data set [3] concerns Fasciola hepatica eggs (ABZ-susceptible isolate). Briefly: Egg hatch test (EHT), ABZ-susceptible isolates. Conditions: mean ± SEM; for % Ovicidal activity: ABZ-susceptible isolate. The data set is classed as cell-based. Here is the method: Eggs were recovered from gallbladders of cattle naturally infected with F. hepatica at the municipal slaughterhouse of León (Spain). For this, the bile of the gallbladders was filtered through sieves of different diameter size pores (500, 150, and 20 µm) using pressurized tap water. Eggs retained on the 20 µm pore size sieve were collected and stored at 4 °C in darkness until required within a maximum period of 2 months.
The susceptibility of the isolates to ABZ was confirmed by the egg hatch test (EHT) using an ABZ discriminant dose (DD) of 0.5 µM [23]. The technique is described in more detail below.
The in vitro anthelmintic activity of a total of 70 BZDs was initially tested on F. hepatica eggs recovered from gallbladders of cattle naturally infected with ABZ-susceptible isolates. The first screening was performed using a fixed concentration of 50 µM. […] Therefore, only BZDs with ovicidal activities over 80% progressed to the next assays at 10 µM. […] At this last concentration, the ovicidal effect of ABZ, ABZSO, and OXF was also evaluated.
as §1
With the aim to characterize the susceptibility of isolates from naturally infected cattle, the drug used in the EHT was ABZ, tested at a discriminant dose of 0.5 μM. Drug susceptibility is assumed when the ovicidal activity is over 70%, resistance when is lower than 40%, and a suspicion of resistance when activity is between these values at 0.5 μM.
as §2

The subject of data set [4] is murine intestinal organoids. Put plainly: Intestinal tolerability assay on murine intestinal organoids. In kind it is cell-based, mouse. The procedure:
The murine intestinal organoid cultures were prepared following Stemcell Technologies™ protocols (https://www.stemcell.com/intestinal-epithelial-organoid-culture-with-intesticult-organoid-growth-medium-mouse-lp.html#protocols). Small intestine sections from C57BL/6 mice were excised, washed with ice-cold PBS, minced, and 2 mm segments were washed extensively. The segments were treated with Gentle Cell Dissociation Reagent (Stemcell Technologies™, Canada), resuspended in ice-cold PBS with 0.1% BSA and filtered. This process was repeated four times, resulting in four fractions. Cells from each fraction were centrifuged, washed, and resuspended in ice-cold DMEM/F12 supplemented with glutamine and HEPES 15 mM. Each fraction was mixed with Geltrex GFR LDEV-free (Gibco, Thermo Fisher Scientific, USA) and IntestiCult™ Organoid Grow Medium Mouse (Stemcell Technologies™, Canada), added to a 24-well plate and incubated at 37 °C for 10 min for matrix polymerization. The organoids were cultured in IntestiCult™ Organoid Grow Medium Mouse, with medium changes every 2 days and splitting after 7 days.
For intestinal tolerability assays, selected hit compounds were tested in mouse intestinal organoids at 25 and 50 µM final concentrations. The protocol, based on a previous work, involved the addition of Gentle Cell Dissociation Reagent (Stemcell Technologies™, Canada) on matrix domes, the disruption of the matrix, and the incubation the suspension. After centrifugation, cells were resuspended in DMEM/F12 supplemented with glutamine and HEPES 15 mM and centrifugated again. The pellet was resuspended in a mix of Geltrex GFR LDEV-free and IntestiCult™ Organoid Grow Medium Mouse. The mix was plated in 384-well plates, and after 4 days, mature organoids were exposed to the compounds. The positive control was hydrogen peroxide (0.15% v/v), and the negative control was DMSO (0.2%). Viability after 72 h was assessed using the alamarBlue assay.

A further data set has as its system HepG2 cells. Briefly: Cytotoxicity assay, alamarBlue. In kind it is cell-based, human. Here is the method: The effect of the BZDs on cell viability was assessed on a human hepatocarcinoma HepG2 (ATCC® HB-8065™, USA) cell line. Only compounds screened at a concentration of 10 µM were evaluated. The detailed protocol is described in a previous study carried out by our research group. Briefly, 10,000 cells were seeded on 96-well plates and incubated with different concentrations of the compounds ranging from 1 to 100 µM at 37 °C and 5% CO2. After 72 h of exposure, viability of the cells was assessed using the alamarBlue (Fisher Scientific®, Spain) staining method according to the manufacturer’s recommendations.
The data are represented as mean ± standard error of media (SEM).

Data set [5] relates to Teladorsagia circumcincta eggs. Conditions: type II BZDs; read-out: IC50 against T. circumcincta eggs; cited from earlier work.
Another data set has as its system Fasciola hepatica eggs. Details: method as in PMID 19560276. Conditions: other studies; cited from earlier work.

Consider ten compounds from article PMC10993450, “New benzimidazole derivative compounds with in vitro fasciolicidal properties” (Parasites & Vectors, 2024).

pIC50: −log10 of the molar value. Several values for one entry are separate records, joined by “and”; a condition that tells them apart may be missing. Equal entries are not always repeated. Entries after “also recorded” stand apart in the source; their conditions may differ. Where two headings read alike, the source gives them in different places.

Take `CCC[S+]([O-])c1ccc2[nH]c(NC(=O)OC)nc2c1` (centres unmarked) [ABZSO, albendazole sulfoxide, reference compound]: the “Motility inhibition of adults after 72 h of incubation (in words; significance vs 24 h)” value in data set [1] (10 µM, ABZ-resistant isolate) is recorded as “nor those with ABZSO or BZD46, exhibited any significant motility inhibition; also recorded: no evidence of inhibition; also recorded: did not produce any motility alteration”. Also, the inhibition at 10 µM in data set [1] (read-out: % Adult motility inhibition 48 h) and in data set [1] (read-out: % Adult motility inhibition 72 h) was 25% each time. Besides, the “% Ovicidal activity resistant isolate” value in data set [2] (5 µM, mean ± SEM) was 26% and 26.12 ± 11.87%. In addition, the “Ovicidal activity on the resistant isolate” value in data set [2] (10 µM as printed) was found to be 26%. Also, in data set [3] (Fasciola hepatica, 5 µM, read-out: % Ovicidal activity susceptible isolate), the killing at 5 µM was more than 98%.
As to `COc1ccc(-c2nc3cc(C)ccc3[nH]2)cc1` [BZD04], the “% Viability in organoids” value in data set [4] (50 µM) is 10.50%. The “% Ovicidal activity” value is on record as 64.27 ± 10.16% in data set [3] (10 µM); 99.57 ± 0.43% in data set [3] (50 µM); “higher than 80%” in data set [3] (50 µM, listed as BZD-04).
`COc1ccc(-c2nc3cc(Cl)ccc3[nH]2)cc1` [BZD08]: the “% Viability in organoids” value came out at 69.30% in data set [4] (25 µM) and 47.30% in data set [4] (50 µM). The “% Ovicidal activity” value in data set [3] (10 µM) was 55.33 ± 05.81%; in data set [3] (10 µM, listed as BZD-08) it was “around 50%”; in data set [3] (50 µM), 98.08 ± 1.06%; in data set [3] (50 µM, listed as BZD-08), “higher than 80%”. The CC50 (usually the concentration at which the toxic effect on the cells reaches its halfway point) with HepG2 cells was more than 50 µM.
Take `Cc1ccc2[nH]c(NCc3ccccc3)nc2c1` [BZD27]: the “% Viability in organoids” value in data set [4] (25 µM, 72 h) turned out to be 54.10%; in data set [4] (50 µM, 72 h), 49.70%. Besides, the “% Ovicidal activity” value in data set [3] (10 µM) is listed as 44.65 ± 07.46%; in data set [3] (10 µM, listed as BZD-27), “around 50%”; in data set [3] (50 µM), 95.92 ± 1.99%; in data set [3] (50 µM, listed as BZD-27), “higher than 80%”.
In the case of `Cc1ccc2[nH]c(NCc3ccco3)nc2c1` [BZD30], the “% Viability in organoids” value in data set [4] (25 µM, 72 h) came to 62.50%; in data set [4] (50 µM, 72 h) it was 54.00%. In addition, the “% Ovicidal activity” value in data set [3] (10 µM) was 52.41 ± 01.02%; in data set [3] (10 µM, listed as BZD-30), “around 50%”; in data set [3] (50 µM) it was 100.00 ± 0.00%; in data set [3] (50 µM, listed as BZD-30), “higher than 80%”. The CC50 with HepG2 cells (72 h exposure, alamarBlue, read-out: CC50 Hep-G2) is more than 50 µM.
`Clc1ccc2[nH]c(NCc3ccccc3)nc2c1` [BZD32]: the “% Viability in organoids” value in data set [4] (25 µM) is reported as 48.10%; in data set [4] (50 µM) it was 52.10%. Further, the “% Ovicidal activity” value in data set [3] (10 µM) was 09.11 ± 03.40%; in data set [3] (50 µM) it was 92.62 ± 1.96%; in data set [3] (50 µM, listed as BZD-32) it was “higher than 80%”.
With `COc1ccc2[nH]c(NCc3ccc(N4CCCC4)cc3)nc2c1` [BZD38], the “% Viability in organoids” value in data set [4] (25 µM) came out at 81.10%; in data set [4] (50 µM), 38.00%. Further, the “% Ovicidal activity” value was 03.23 ± 00.84% in data set [3] (10 µM) and “higher than 80%” in data set [3] (50 µM). The CC50 in the data set with HepG2 cells was more than 100 µM.
In the case of `Cc1ccc2[nH]c(NC(=O)c3ccccn3)nc2c1` [BZD55], the “% Viability in organoids” value in data set [4] (25 µM) was 98.60%. The “% Ovicidal activity” value is listed as 07.11 ± 03.01% in data set [3] (10 µM); 89.71 ± 3.87% in data set [3] (50 µM); “higher than 80%” in data set [3] (50 µM, listed as BZD-55). The compound also returned a CC50 in the data set with HepG2 cells of more than 100 µM. In data set [5], the pIC50 (as a rule, the negative decadic logarithm of the IC50, by convention in mol/L) is approximately 6.00.
`COc1ccc2[nH]c(NC(=O)c3ccccn3)nc2c1` [BZD61]: the “% Ovicidal activity” value in data set [3] (50 µM) is listed as 93.17 ± 3.31%; in data set [3] (50 µM, listed as BZD-61) it was “higher than 80%”. For the same compound, the pIC50 in data set [5] was more than 6.00.
As for `Nc1cc(C(Cl)=C(Cl)Cl)c(S(N)(=O)=O)cc1S(N)(=O)=O` [CLR, clorsulon], in the data set with Fasciola hepatica eggs, the “Effect on in vitro egg hatching” value is “did not affect in vitro egg hatching”.
